Columns and labels:
Helicobacter pylori = assay: Adhesion of FITC-labeled Helicobacter pylori to human gastric mucosa; assay type: cell-based; conditions: for adhesion score / fluorescence intensity: FITC-labeled H. pylori on human gastric mucosa; for adhesion score: 1 mg/ml; for antiadhesive effect on Helicobacter pylori: bacteria incubated with compound 1 mg/ml, stomach tissue; for fluorescence intensity: untreated bacteria standardized to 100%
Experimental: Adhesion tests were carried out in accordance with. This entailed FITC-labeled bacteria being incubated with the compounds to be tested (1 mg/ml). Deparaffinized pieces of stomach tissue were incubated with the bacteria. Microorganisms which adhere to the epithelium were counted under a fluorescence microscope and compared with an untreated control.
The maximum adhesion, as found for example in the untreated control groups (negative control), was assigned a score of +++++, while lower adhesions were assigned scores ++++, +++, ++, + or −, the score found for the positive control (sialyllactose, [7]) being −.
FIG. 4: Fluorescence microscopes (200×) of a representative in situ experiment with FITC-labeled H. pylorion human gastric mucosa: (A) complete adhesion (+++++) of untreated bacteria, fluorescence intensity standardized to 100% (negative control), (B) positive control (−), fluorescence intensity 10% (C) compound No. 5 (++++), fluorescence intensity 78%, (D) compound No. 8 (+) fluorescence intensity 19%.

[1] = system: human liver cells (HEPG2); assay: MTT cell metabolic (mitochondrial) activity in HepG2 liver cells; assay type: cell-based; conditions: for mitochondrial activity: HepG2, 10 and 100 μg/ml, incubation for 48 hours, MTT; for energy status: HepG2, shortened incubation time of 24 hours
Experimental: (§1) The HepG2 cell line, clone H20, was received from Prof. Mersch-Sundermann, Giessen University, and cultured as described in [2]. The cells were cultured in low glucose (1 g/l) Dulbecco's modified Eagle's medium (DMEM) with L-glutamine and 25 mM Hepes, which was mixed with 15% (v/v) heat-inactivated fetal calf serum (FCS) and gentamycin (30 μg/ml), in a moist atmosphere at 37+/−0.5° C., 5% CO2. The cells were trypsinized, washed with PBS (pH 7.4), gently centrifuged and then a cell suspension in a cell medium was prepared by forcing the sediment through a needle. The medium was changed every three to five days. The compounds Nos. 5 and 8 to be tested were dissolved in a concentration of 1 mg/ml in HepG2 medium, to which the serum-free supplement SerEx was added instead of FCS, and filtered through a 0.2 μm cellulose acetate filter.
The cells were seeded in 96-well microtiter plates (1×10^4 cells/well). […] The cell metabolic activity was quantified as 2.5 mg/ml MTT in accordance with. The extracytosolic LDH [4] was quantified with a cytotoxicity assay.
FIG. 2: Influence of compounds No. 5 and No. 8 (10 and 100 μg/ml) on the mitochondrial activity of human liver cells (HEPG2) after incubation for 48 hours.
The measurement plotted in FIG. 2 is the relative mitochondrial dehydrogenase activity (untreated control=100%). The bars represent the means of a representative experiment with n=10.

[2] = system: Human primary keratinocytes (NHK); assay: MTT mitochondrial activity in human keratinocytes; assay type: cell-based; conditions: 10 μg/ml
Experimental: (§2) Human primary keratinocytes (NHK) were isolated from human skin obtained by surgical resection of Caucasian patients. In vitro tests relating to the mitochondrial activity, the BrdU incorporation and for necrotic effects by means of an LDH assay were carried out.
(§3) The investigations were carried out with cells of the 2nd to 6th passage. Both compound No. 5 and compound No. 8 increased in a concentration of 10 μg/ml both the mitochondrial activity and the proliferation (FIG. 3).
(§4) FIG. 3: Influence of compounds No. 5 and No. 8 (10 μg/ml) on the mitochondrial activity (A) and the mitotic proliferation (B) of HaCaT keratinocytes after incubation for 60 hours.
(§5) The measurement plotted in FIG. 3A is the relative mitochondrial dehydrogenase activity (untreated control=100%) and in FIG. 3 b is the relative mitochondrial proliferation rate (untreated control=100%).
(§6) The mitochondrial activity was investigated using the MTT assay, and the proliferation by BrdU-incorporation ELISA. The bars represent the standard errors with n=10. Negative control: untreated cells, positive control: fibroblast growth factor FGF.

[3] = system: Human primary keratinocytes (NHK); assay: BrdU incorporation proliferation in human keratinocytes; assay type: cell-based; conditions: 10 μg/ml
Experimental: as §2, §3, §4, §5, §6

[4] = system: Human primary keratinocytes (NHK); assay: LDH assay for necrotic effects in human keratinocytes; assay type: cell-based
Experimental: as §2, §3

HepG2 cell line = assay: Extracytosolic LDH cytotoxicity assay in HepG2 cells; assay type: cell-based, human; conditions: HepG2, 100 and 10 μg/ml
Experimental: as §1
The cells were seeded in 96-well microtiter plates (1×10^4 cells/well). After 24 h, the medium was removed and the cells were exposed to the compounds to be tested, in concentrations of 100 and 10 μg/ml, for 48 h. The cell metabolic activity was quantified as 2.5 mg/ml MTT in accordance with. The extracytosolic LDH [4] was quantified with a cytotoxicity assay.

Compound	adhesion score (Helicobacter pylori)	antiadhesive effect on Helicobacter pylori (Helicobacter pylori)	fluorescence intensity (Helicobacter pylori) [%]	mitochondrial activity [1]	energy status [1]	mitochondrial activity [2]	proliferation [3]	cytotoxicity [4]	necrotic cytotoxicity (LDH) (HepG2 cell line)
O=C(/C=C/c1ccc(O)c(O)c1)N[C@@H](Cc1c[nH]c2ccccc12)C(=O)O [Compound 5, (+)-N-[3′,4′-dihydroxy-(E)-cinnamoyl]-L-tryptophan]	++++	no effect	78	increased	no effect	increased	increased	No cytotoxicity was detected	no necrotic cytotoxicity was detectable
O=C(O)C[C@H](NC(=O)/C=C/c1ccc(O)c(O)c1)C(=O)O [Compound 8, (+)-N-[3′,4′-dihydroxy-(E)-cinnamoyl]-L-aspartic acid]	+	almost complete suppression of adhesion	19	increased	significantly increased	increased	increased	No cytotoxicity was detected	no necrotic cytotoxicity was detectable
O=C(/C=C/c1ccc(O)c(O)c1)N[C@@H](Cc1ccc(O)c(O)c1)C(=O)O [Compound 11, (−)-N-[3′,4′-dihydroxy-(E)-cinnamoyl]-3-hydroxy-L-tyrosine]		none of the effects described		none of the effects described		none of the effects described	none of the effects described		
sialyllactose [reference compound]	−		10						
